Experimental data taken from US11998539B2, “Substituted aminoquinolones as DGKalpha inhibitors for immune activation” (Bayer Aktiengesellschaft, priority 2019, dated 2024).

Biological target: DGKα (Homo sapiens (Human), UniProt P23743)
Assay: Human DGKα kinase activity inhibition assay (ADP-Glo)
Format: biochemical
Settings: recombinant full-length human DGKα, 55 μM ATP, 7 μM 1,2-dioleoyl-sn-glycerol, read-out: IC50 values of examples in in vitro human DGKa kinase activity inhibition assays
In short: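 Activity was measured as ADP production, detected by luciferase luminescence after removal of unused ATP. The enzyme was baculovirus-expressed full-length human DGKα with a C-terminal FLAG tag. The substrate was 1,2-dioleoyl-sn-glycerol in detergent micelles, and compounds came from 100× DMSO solutions.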

Chain of DGKα (P23743 other isoform, or with tags, fused parts or gaps): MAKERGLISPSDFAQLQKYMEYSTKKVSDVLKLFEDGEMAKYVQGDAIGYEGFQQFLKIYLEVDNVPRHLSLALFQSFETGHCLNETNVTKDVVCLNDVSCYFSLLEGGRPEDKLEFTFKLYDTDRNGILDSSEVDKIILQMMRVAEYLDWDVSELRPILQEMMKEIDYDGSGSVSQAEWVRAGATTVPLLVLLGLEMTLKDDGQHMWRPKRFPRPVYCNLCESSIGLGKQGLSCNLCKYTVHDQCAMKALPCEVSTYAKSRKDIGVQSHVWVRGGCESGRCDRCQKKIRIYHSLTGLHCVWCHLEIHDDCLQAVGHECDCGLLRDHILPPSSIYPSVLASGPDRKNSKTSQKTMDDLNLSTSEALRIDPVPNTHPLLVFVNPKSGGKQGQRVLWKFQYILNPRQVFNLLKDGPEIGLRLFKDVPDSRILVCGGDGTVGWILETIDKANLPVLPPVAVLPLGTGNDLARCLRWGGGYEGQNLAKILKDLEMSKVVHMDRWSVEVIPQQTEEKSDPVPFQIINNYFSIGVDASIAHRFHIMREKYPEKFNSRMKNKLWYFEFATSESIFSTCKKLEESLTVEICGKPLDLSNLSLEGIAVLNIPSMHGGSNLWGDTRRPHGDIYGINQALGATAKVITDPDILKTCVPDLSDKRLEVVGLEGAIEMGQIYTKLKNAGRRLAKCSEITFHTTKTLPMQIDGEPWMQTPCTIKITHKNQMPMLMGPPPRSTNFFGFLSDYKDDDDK

Molecule	IC50
COCCc1ccc2oc(C3CCN(c4c(C(N)=O)c(=O)n(C)c5ccccc45)CC3)nc2c1 [Example 295, 4-{4-[5-(2-methoxyethyl)-1,3-benzoxazol-2-yl]piperidin-1-yl}-1-methyl-2-oxo-1,2-dihydroquinoline-3-carboxamide]	9.5 nM
COc1ccccc1C1CCN(c2c(C#N)c(=O)n(C)c3ccccc23)CC1 [Example 52, 4-[4-(2-methoxyphenyl)piperidin-1-yl]-1-methyl-2-oxo-1,2-dihydroquinoline-3-carbonitrile]	8.8 nM
COC1(c2nc3ccccc3o2)CCN(c2c(C#N)c(=O)n(C)c3ccccc23)CC1 [Example 390, 4-[4-(1,3-benzoxazol-2-yl)-4-methoxypiperidin-1-yl]-1-methyl-2-oxo-1,2-dihydroquinoline-3-carbonitrile]	3.5 nM
Cn1c(=O)c(C#N)c(N2CCC(c3nnc(-c4cccc(C(F)(F)F)c4)o3)CC2)c2cc(Br)ccc21 [Example 435, 6-bromo-1-methyl-2-oxo-4-(4-{5-[3-(trifluoromethyl)phenyl]-1,3,4-oxadiazol-2-yl}piperidin-1-yl)-1,2-dihydroquinoline-3-carbonitrile]	4.3 nM
Cc1ccc2oc(C3CCN(c4c(C(N)=O)c(=O)n(C)c5ccc(C6CCC6)cc45)CC3)nc2c1 [Example 506, 6-cyclobutyl-1-methyl-4-[4-(5-methyl-1,3-benzoxazol-2-yl)piperidin-1-yl]-2-oxo-1,2-dihydroquinoline-3-carboxamide]	574 nM
Cn1c(=O)c(C#N)c(N2CCC(c3cccc4occc34)CC2)c2ccccc21 [Example 101, 4-[4-(1-benzofuran-4-yl)piperidin-1-yl]-1-methyl-2-oxo-1,2-dihydroquinoline-3-carbonitrile]	12 nM
COCCNc1cc2c(cc1C)c(N1CCC(c3nc4cc(C)ccc4o3)CC1)c(C(N)=O)c(=O)n2C [Example 552, 7-[(2-methoxyethyl)amino]-1,6-dimethyl-4-[4-(5-methyl-1,3-benzoxazol-2-yl)piperidin-1-yl]-2-oxo-1,2-dihydroquinoline-3-carboxamide]	1.6 nM
COc1ccc(C2CCN(c3c(C#N)c(=O)n(C)c4ccc(Br)cc34)CC2)cc1 [Example 167, 6-bromo-4-[4-(4-methoxyphenyl)piperidin-1-yl]-1-methyl-2-oxo-1,2-dihydroquinoline-3-carbonitrile]	3.2 nM
Cc1cccc(-c2noc(C3CCN(c4c(C#N)c(=O)n(C)c5ccccc45)CC3)n2)c1 [Example 350, 1-methyl-4-{4-[3-(3-methylphenyl)-1,2,4-oxadiazol-5-yl]piperidin-1-yl}-2-oxo-1,2-dihydroquinoline-3-carbonitrile]	11 nM
Cc1ccc2oc(C3CCN(c4c(C(N)=O)c(=O)n(C)c5ccc(Br)cc45)CC3)nc2c1 [Example 492, 6-bromo-1-methyl-4-[4-(5-methyl-1,3-benzoxazol-2-yl)piperidin-1-yl]-2-oxo-1,2-dihydroquinoline-3-carboxamide]	1.5 nM
Cn1c(=O)c(C(N)=O)c(N2CCC(C)(c3nc4ccccc4o3)CC2)c2ccc(Cl)cc21 [Example 297, 4-[4-(1,3-benzoxazol-2-yl)-4-methylpiperidin-1-yl]-7-chloro-1-methyl-2-oxo-1,2-dihydroquinoline-3-carboxamide]	0.6 nM
CCOc1ccc2c(c1)c(N1CCC(c3nc4cc(C)ccc4o3)CC1)c(C#N)c(=O)n2C [Example 405, 6-ethoxy-1-methyl-4-[4-(5-methyl-1,3-benzoxazol-2-yl)piperidin-1-yl]-2-oxo-1,2-dihydroquinoline-3-carbonitrile]	41 nM
Cn1c(=O)c(C#N)c(N2CCC(C)(c3nc4ccccc4o3)CC2)c2cccc(Cl)c21 [Example 230, 4-[4-(1,3-benzoxazol-2-yl)-4-methylpiperidin-1-yl]-8-chloro-1-methyl-2-oxo-1,2-dihydroquinoline-3-carbonitrile]	83 nM
Cn1c(=O)c(C#N)c(N2CCC(c3nc4c(F)cccc4o3)CC2)c2ccccc21 [Example 26, 4-[4-(4-fluoro-1,3-benzoxazol-2-yl)piperidin-1-yl]-1-methyl-2-oxo-1,2-dihydroquinoline-3-carbonitrile]	10 nM
4-[4-(1,3-benzoxazol-5-yl)piperidin-1-y-1-methyl-2-oxo-1,2-dihydroquinoline-3-carbonitrile [Example 67]	85 nM
Cc1ccc2oc(C3CCN(c4c(C#N)c(=O)n(C)c5cc(OC6CCOC6)ccc45)CC3)nc2c1 (racemic) [Example 379, (rac)-1-methyl-4-[4-(5-methyl-1,3-benzoxazol-2-yl)piperidin-1-yl]-2-oxo-7-[(oxolan-3-yl)oxy]-1,2-dihydroquinoline-3-carbonitrile]	1 nM
COc1ccc2cc(C3CCN(c4c(C(N)=O)c(=O)n(C)c5ccccc45)CC3)ccc2c1 [Example 457, 4-[4-(6-methoxynaphthalen-2-yl)piperidin-1-yl]-1-methyl-2-oxo-1,2-dihydroquinoline-3-carboxamide]	6.8 nM
Cc1ccc2oc(C3(C)CCN(c4c(C#N)c(=O)n(C)c5cc(F)ccc45)CC3)nc2c1 [Example 237, 7-fluoro-1-methyl-4-[4-methyl-4-(5-methyl-1,3-benzoxazol-2-yl)piperidin-1-yl]-2-oxo-1,2-dihydroquinoline-3-carbonitrile]	5 nM
Cn1c(=O)c(C#N)c(N2CCC(c3cccnc3)CC2)c2ccccc21 [Example 144, 1-methyl-2-oxo-4-[4-(pyridin-3-yl)piperidin-1-yl]-1,2-dihydroquinoline-3-carbonitrile]	897 nM
Cn1c(=O)c(C#N)c(N2CCC(c3nc4ccc(Cl)cc4o3)CC2)c2ccccc21 [Example 9, 4-[4-(6-chloro-1,3-benzoxazol-2-yl)piperidin-1-yl]-1-methyl-2-oxo-1,2-dihydroquinoline-3-carbonitrile]	3.3 nM
Cc1ccc2oc(C3CCN(c4c(C(N)=O)c(=O)n(C)c5c(Cl)cccc45)CC3)nc2c1 [Example 319, 8-chloro-1-methyl-4-[4-(5-methyl-1,3-benzoxazol-2-yl)piperidin-1-yl]-2-oxo-1,2-dihydroquinoline-3-carboxamide]	74 nM
Cc1ccccc1-c1nnc(C2CCN(c3c(C#N)c(=O)n(C)c4cc(O)ccc34)CC2)o1 [Example 444, 7-hydroxy-1-methyl-4-{4-[5-(2-methylphenyl)-1,3,4-oxadiazol-2-yl]piperidin-1-yl}-2-oxo-1,2-dihydroquinoline-3-carbonitrile]	82 nM
Cc1cccc(-n2ccc(C3CCN(c4c(C#N)c(=O)n(C)c5ccccc45)CC3)n2)c1 [Example 366, 1-methyl-4-{4-[1-(3-methylphenyl)-1H-pyrazol-3-yl]piperidin-1-yl}-2-oxo-1,2-dihydroquinoline-3-carbonitrile]	12 nM
CNC(=O)c1c(N2CCC(C)(c3nc4ccccc4o3)CC2)c2ccccc2n(C)c1=O [Example 449, 4-[4-(1,3-benzoxazol-2-yl)-4-methylpiperidin-1-yl]-N,1-dimethyl-2-oxo-1,2-dihydroquinoline-3-carboxamide]	13 nM
Cc1ccccc1-c1noc(C2CCN(c3c(C(N)=O)c(=O)n(C)c4ccccc34)CC2)n1 [Example 458, 1-methyl-4-{4-[3-(2-methylphenyl)-1,2,4-oxadiazol-5-yl]piperidin-1-yl}-2-oxo-1,2-dihydroquinoline-3-carboxamide]	4.3 nM
